The values that follow come from ChEMBL document CHEMBL5223062, “Tumor pyruvate kinase M2 modulators: a comprehensive account of activators and inhibitors as anticancer agents” (RSC Med Chem, 2021).

SMILES strings stand for the structures.

For assay [1], the target named is T1, Pyruvate kinase PKM (Homo sapiens, UniProt P14618). The assay is described as follows: Activation of PKM2 (unknown origin).
Target sequence in this assay (P14618 whole entry): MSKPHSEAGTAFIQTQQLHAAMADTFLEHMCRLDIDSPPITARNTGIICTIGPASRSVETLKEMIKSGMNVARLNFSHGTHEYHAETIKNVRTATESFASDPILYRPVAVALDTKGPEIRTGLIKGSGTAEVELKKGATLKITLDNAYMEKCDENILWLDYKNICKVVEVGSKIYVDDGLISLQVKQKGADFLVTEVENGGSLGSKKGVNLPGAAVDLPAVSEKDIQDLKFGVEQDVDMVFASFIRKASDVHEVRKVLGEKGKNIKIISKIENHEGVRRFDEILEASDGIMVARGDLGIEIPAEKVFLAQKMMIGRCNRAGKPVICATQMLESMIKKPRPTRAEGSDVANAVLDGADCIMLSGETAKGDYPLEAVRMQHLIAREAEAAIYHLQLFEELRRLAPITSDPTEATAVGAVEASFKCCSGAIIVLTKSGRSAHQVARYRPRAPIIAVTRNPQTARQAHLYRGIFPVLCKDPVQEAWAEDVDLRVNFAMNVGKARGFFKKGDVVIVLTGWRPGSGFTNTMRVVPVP
For assay [2], the target named is T1, Pyruvate kinase PKM. Description: Inhibition of PKM1 (unknown origin) at 10 uM relative to control.
Target sequence in this assay (P14618 2-531 limits assumed): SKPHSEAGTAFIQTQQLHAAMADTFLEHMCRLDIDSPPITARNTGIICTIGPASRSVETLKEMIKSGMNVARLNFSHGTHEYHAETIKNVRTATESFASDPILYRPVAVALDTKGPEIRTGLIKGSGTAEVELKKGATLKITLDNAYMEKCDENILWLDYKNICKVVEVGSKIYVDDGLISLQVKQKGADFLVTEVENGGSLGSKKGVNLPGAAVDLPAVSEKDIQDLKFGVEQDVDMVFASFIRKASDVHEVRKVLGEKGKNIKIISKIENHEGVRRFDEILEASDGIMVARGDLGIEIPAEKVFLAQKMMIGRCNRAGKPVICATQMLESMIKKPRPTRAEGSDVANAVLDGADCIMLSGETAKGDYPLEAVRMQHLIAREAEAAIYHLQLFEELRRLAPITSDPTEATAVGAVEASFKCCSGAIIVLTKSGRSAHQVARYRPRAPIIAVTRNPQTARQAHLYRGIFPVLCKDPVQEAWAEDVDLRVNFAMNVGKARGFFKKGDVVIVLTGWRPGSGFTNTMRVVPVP
Assay [3] has as its target T1, Pyruvate kinase PKM. The assay is described as follows: Inhibition of PKM2 (unknown origin) at 10 uM relative to control.
Target sequence in this assay (P14618 2-531 limits assumed): as above
The next assay relates to HeLa. Description: Antiproliferative activity against human HeLa cells assessed as cell growth inhibition. It counts as functional, cell-based.
For another assay, the system named is HCT-116. Description: Antiproliferative activity against human HCT-116 cells assessed as cell growth inhibition. In kind it is functional, cell-based.
Assay [4] deals with NCI-H1299. The assay is described as follows: Antiproliferative activity against human NCI-H1299 cells assessed as cell growth inhibition. In kind it is functional, cell-based.
Assay [5] addresses T1, Pyruvate kinase PKM. Description: Activation of PKM2 in human NCI-H1299 cells. It counts as cell-based.
Target sequence in this assay (P14618 whole entry): as the sequence (P14618 whole entry) above
For assay [6], the target named is T1, Pyruvate kinase PKM. The assay is described as follows: Inhibition of PKM2 (unknown origin).
Target sequence in this assay (P14618 whole entry): as above
The target in assay [7] is T1, Pyruvate kinase PKM. Description: Binding affinity to PKM2 (unknown origin) assessed as Gibbs free energy.
Target sequence in this assay (P14618 2-531 limits assumed): as the sequence (P14618 2-531 limits assumed) above
Assay [8] concerns NCI-H1299. The assay is described as follows: Inhibition of glycolysis in human NCI-H1299 cells. It counts as functional.
The subject of the next assay is PC-3. The assay is described as follows: Antiproliferative activity against human PC-3 cells assessed as cell growth inhibition. In kind it is functional, cell-based.
Another assay has as its system HT-29. The assay is described as follows: Antiproliferative activity against human HT-29 cells assessed as cell growth inhibition. It counts as functional, cell-based.
The next assay deals with DLD-1. The assay is described as follows: Antiproliferative activity against human DLD-1 cells assessed as cell growth inhibition. In kind it is functional, cell-based.

As for `C=C1C(=O)O[C@H]2C1CCC(C)=C1CC[C@@](C)(O)[C@@H]12` (stereo not given in full), the AC50 (in general, the concentration giving half of the maximal activity seen) on Pyruvate kinase PKM [1] worked out at 6 nM.

As to `Nc1cccc(S(=O)(=O)N2CCCN(S(=O)(=O)c3ccc4c(c3)OCCO4)CC2)c1`, the AC50 at Pyruvate kinase PKM [1] was 30 nM.

On to `CCCCCN1/C(=C\C=C\C2N(CCCC)c3cc(Cl)c(Cl)cc3N2CCCCC)N(CCCC)c2cc(Cl)c(Cl)cc21` (stereo not given), for which the inhibition (in general, how much of the control response was suppressed) came to 31% against Pyruvate kinase PKM [2] and 86% against Pyruvate kinase PKM [3].

As for `CC1=C(CSC(=S)N2CCCCC2)C(=O)c2ccccc2C1=O`, the IC50 in the assay on HeLa, in the assay with HCT-116 and with NCI-H1299 [4] was 2950 nM each time.

As for `COc1cccc(Cn2ncc3c4sc([S+](C)[O-])cc4n(C)c3c2=O)c1` (stereo not given), half-maximal activity at Pyruvate kinase PKM [5] (AC50) was put at 70 nM.

Take `O=C(O)/C=C/c1ccc(O)cc1` [COUMARIC ACID]: the activity at Pyruvate kinase PKM [1] was half-maximal at 22200 nM (AC50).

With `O=c1c(O)c(-c2cc(O)c(O)c(O)c2)oc2cc(O)cc(O)c12` [MYRICETIN], the AC50 at Pyruvate kinase PKM [1] came out at 510 nM.

As to `CC(C)=CCC1=C(O)C(=O)c2ccccc2C1=O` [LAPACHOL], the IC50 – broadly, the concentration that gives 50% inhibition – on Pyruvate kinase PKM [6] is 1400 nM. For the same compound, the deltaG at Pyruvate kinase PKM [7] was -9.34 kcal/mol.

As for `CC(C)=CC[C@@H](O)C1=CC(=O)c2c(O)ccc(O)c2C1=O` [SHIKONIN], the midpoint of inhibition at Pyruvate kinase PKM [6], the IC50, lay at 1420 nM. For the same compound, at Pyruvate kinase PKM [7], the deltaG was -7.98 kcal/mol.

For `Cc1cc2c(s1)c1cnn(Cc3ccccc3F)c(=O)c1n2C`, the half-maximal activity concentration (AC50) on Pyruvate kinase PKM [5] came out at 60 nM. That is a double-digit nanomolar value.

Take `Cn1cc(C(=O)c2cccc(Cl)c2Cl)cc1C(=O)NCCNC(=O)c1cc(C(=O)c2cccc(Cl)c2Cl)cn1C`: the concentration at half-maximal activity (AC50) on Pyruvate kinase PKM [1] was 10 nM.

`O=C(c1cc(C(F)(F)F)n[nH]1)N(Cc1ccc(O)cc1F)CC1CCC1`: half-maximal activity at Pyruvate kinase PKM [1] (AC50) was put at 10 nM.

In turn, `O=C1CCc2cc(S(=O)(=O)Nc3ccc(F)c(Cl)c3)c(F)cc2N1` showed an AC50 on Pyruvate kinase PKM [1] of 90 nM. Against the preceding compound, the AC50 is about 9-fold higher.

`O=C(O)CN1C(=O)/C(=C/c2ccc(OC(=O)c3ccccc3I)cc2)SC1=S`: the inhibition against Pyruvate kinase PKM [2] amounted to 36%; on Pyruvate kinase PKM [3], 84%.

At Pyruvate kinase PKM [1], `COc1cc(/C=C/C(=O)O)cc(OC)c1O` [SINAPINATE] showed an AC50 of 26200 nM.

Compound `COc1ccc(-c2cc(=O)c3c(OC)c(OC)c(OC)c(OC)c3o2)cc1` [TANGERETIN] displayed an AC50 at Pyruvate kinase PKM [1] of 950 nM.

On to `Cc1ccc(C)n1-c1ccc(O)c(C(=O)O)c1`, for which the inhibition on Pyruvate kinase PKM [2] is 34%; on Pyruvate kinase PKM [3], 81%. Besides, in the assay on NCI-H1299 [8], the “inhibition (INH)” value worked out at 18.5%.

Turning to `C=C1C(=O)O[C@@H]2[C@H]3O[C@]3(C)CC/C=C(/C(=O)OCCOCCOC(=O)/C3=C/CC[C@@]4(C)O[C@@H]4[C@H]4OC(=O)C(=C)[C@@H]4CC3)CC[C@@H]12`, the AC50 on Pyruvate kinase PKM [1] was 15 nM.

On to `COc1ccccc1N1CCN(C(=O)c2ccc(NS(=O)(=O)c3cccc4cccnc34)cc2)CC1`, for which the half-maximal activity concentration (AC50) at Pyruvate kinase PKM [1] stood at 10 nM. Against the preceding compound, the AC50 is about 1.5-fold lower.

`O=S(=O)(Nc1ccc(C2(O)CSC(=S)N2Cc2ccccc2)cc1)c1ccc2c(c1)OCCO2` (stereo not given): the concentration for half-maximal inhibition (IC50) with HeLa, in the assay with HCT-116 and in the assay with PC-3 was 460 nM each time. For the same compound, on Pyruvate kinase PKM [1], the activity was half-maximal at 3140 nM (AC50).

In the case of `O=c1cc(-c2ccc(O)cc2)oc2cc(O)cc(O)c12` [APIGENIN], the IC50 in the assay with HCT-116 came out at 27900 nM; with HT-29, 2000 nM; in the assay on DLD-1, 89500 nM.

`O=P(O)(O)OC[C@H]1O[C@](O)(COP(=O)(O)O)[C@@H](O)[C@@H]1O` [FOSFRUCTOSE]: at Pyruvate kinase PKM [1], the activity was half-maximal at 7000 nM (AC50).
